In the Kinase Knowledgebase extract (Sharma et al. 2016):
pIC50: −log10 of the molar value.

These molecules were tested against PIK3CG (human) (UniProt P48736) (assay: Assessment of PIK3CG Kinase Activity).
Sequence of PIK3CG (human) (P48736 whole entry, looked up): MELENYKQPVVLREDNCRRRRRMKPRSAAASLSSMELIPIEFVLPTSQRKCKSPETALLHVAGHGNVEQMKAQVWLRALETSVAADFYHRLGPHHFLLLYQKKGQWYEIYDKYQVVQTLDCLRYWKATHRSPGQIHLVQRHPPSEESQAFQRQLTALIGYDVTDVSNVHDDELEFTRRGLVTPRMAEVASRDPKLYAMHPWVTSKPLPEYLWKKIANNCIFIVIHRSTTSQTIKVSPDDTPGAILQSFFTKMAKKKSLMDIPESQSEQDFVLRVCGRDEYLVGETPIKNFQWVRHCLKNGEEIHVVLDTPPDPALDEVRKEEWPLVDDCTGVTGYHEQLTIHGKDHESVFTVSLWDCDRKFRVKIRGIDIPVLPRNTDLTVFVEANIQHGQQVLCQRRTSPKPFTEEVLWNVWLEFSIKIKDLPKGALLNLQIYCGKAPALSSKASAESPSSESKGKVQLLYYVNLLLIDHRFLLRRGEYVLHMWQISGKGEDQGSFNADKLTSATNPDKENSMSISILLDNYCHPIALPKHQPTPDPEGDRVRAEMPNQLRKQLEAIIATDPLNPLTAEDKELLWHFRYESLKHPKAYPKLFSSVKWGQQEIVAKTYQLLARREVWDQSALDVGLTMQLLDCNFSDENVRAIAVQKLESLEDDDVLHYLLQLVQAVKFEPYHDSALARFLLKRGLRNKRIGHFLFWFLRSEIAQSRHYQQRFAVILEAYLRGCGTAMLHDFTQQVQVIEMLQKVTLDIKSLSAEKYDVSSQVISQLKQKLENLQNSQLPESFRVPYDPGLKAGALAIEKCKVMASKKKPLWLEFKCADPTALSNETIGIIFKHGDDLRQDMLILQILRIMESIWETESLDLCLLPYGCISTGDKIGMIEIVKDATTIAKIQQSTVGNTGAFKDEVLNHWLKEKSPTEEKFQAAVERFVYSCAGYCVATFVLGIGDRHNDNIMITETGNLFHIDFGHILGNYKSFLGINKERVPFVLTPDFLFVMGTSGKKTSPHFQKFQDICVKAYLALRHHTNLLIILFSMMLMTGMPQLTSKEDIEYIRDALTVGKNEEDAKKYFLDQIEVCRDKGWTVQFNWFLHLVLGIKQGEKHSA

Compound | pIC50
CCSC(=O)Nc1nc2c(s1)-c1c(cnn1-c1ccccc1)CC2 | > 6.10
COc1ccc(-n2ncc3c2-c2sc(NC(C)=O)nc2CC3)cc1 | > 6.10
CC(=O)Nc1nc2c(s1)-c1c(cnn1-c1ccc(Cl)cc1)CC2 | > 6.10
CNC(=O)c1ccc(-c2ncc3c(n2)-c2sc(NC(C)=O)nc2CC3)cc1 | > 6.10
CC(=O)Nc1nc2c(s1)-c1c(cnn1-c1ccc(C(=O)N3CCCCC3CO)cc1)CC2 (centres undefined) | > 6.10
CC(=O)Nc1nc2c(s1)-c1nc(N3CCCC(CNC(C)C)C3)ncc1CC2 (centres undefined) | > 6.10
CC(=O)Nc1nc2c(s1)-c1c(cnn1-c1ccc(C(=O)N3CCN(C)CC3)cc1)CC2 | > 6.10
CC(=O)Nc1nc2c(s1)-c1c(cnn1-c1ccc(OC(F)(F)F)cc1)CC2 | > 6.10
CC(=O)Nc1nc2c(s1)-c1nc(-c3ccccc3)ncc1C2 | > 6.10
CC(=O)Nc1nc2c(s1)-c1c(cnn1-c1ccc(C(=O)N(C)Cc3cnn(C)c3)cc1)CC2 | > 6.10
CC(=O)Nc1nc2c(s1)-c1c(cnn1-c1ccc(CC(=O)NC3CCOC3=O)cc1)CC2 (centres undefined) | > 6.10
CC(=O)Nc1nc2c(s1)-c1nc(-c3ccc(O)cc3)ncc1CC2 | > 6.10
CC(=O)Nc1nc2c(s1)-c1c(cnn1-c1ccc(S(=O)(=O)N(C)C)cc1)CC2 | > 6.10
CC(=O)NCCCC[C@H](NC(=O)c1ccc(-n2ncc3c2-c2sc(NC(C)=O)nc2CC3)c(Cl)c1)C(N)=O | > 6.10
CC(=O)Nc1nc2c(s1)-c1c(cnn1-c1ccc(C(=O)N3CCC(N4CCNC4=O)CC3)cc1)CC2 | > 6.10
CCCC(=O)n1ncc2c1-c1sc(NC(C)=O)nc1CC2 | > 6.10
CC(=O)Nc1nc2c(s1)-c1c(c(-c3ccco3)nn1-c1ccc(C(N)=O)cc1Cl)CC2 | > 6.10
CC(=O)Nc1nc2c(s1)-c1c(cnn1-c1ccc(C(=O)NCCCCCCN)cc1)CC2 | > 6.10
CC(=O)Nc1nc2c(s1)-c1c(c(-c3cn(C)cn3)nn1-c1ccccc1)CC2 | > 6.10
CNC(=O)c1ccc(-n2nc(-c3ccco3)c3c2-c2sc(NC(C)=O)nc2CC3)c(Cl)c1 | > 6.10
CC(=O)Nc1nc2c(s1)-c1c(cnn1-c1ccc(C(=O)NCc3nc4ccccc4[nH]3)cc1)CC2 | > 6.10
CC(=O)Nc1nc2c(s1)-c1c(cnn1-c1ccc(C(=O)N[C@H](CC(=O)O)C(N)=O)cc1Cl)CC2 | > 6.10
CC(=O)Nc1nc2c(s1)-c1c(cnn1-c1ccc(C(=O)N(C)CC(C)O)cc1)CC2 (centres undefined) | > 6.10
CCn1ncc2c1-c1sc(NC(C)=O)nc1CC2 | > 6.10
COC(=O)c1nn(-c2ccccc2Cl)c2c1CCc1nc(NC(C)=O)sc1-2 | > 6.10

Compound | pIC50
CC(=O)Nc1nc2c(s1)-c1c(cnn1-c1ccc(C(=O)NCCCn3ccnc3)cc1)CC2 | > 6.10
CCN1CCCC(NC(=O)c2ccc(-n3ncc4c3-c3sc(NC(C)=O)nc3CC4)cc2)C1 (centres undefined) | > 6.10
CC(=O)Nc1nc2c(s1)-c1c(c(C)nn1-c1ccc(Cl)cc1)CC2 | > 6.10
NC(=O)Nc1nc2c(s1)-c1c(cnn1-c1ccccc1)C2 | > 6.10
CNC(=O)Nc1nc2c(s1)-c1c(cnn1-c1ccccc1)CC2 | > 6.10
CC(=O)Nc1nc2c(s1)-c1nc(N3CCCOCC3)ncc1CC2 | > 6.10
CC(=O)Nc1nc2c(s1)-c1nc(C(C)C)ncc1CC2 | > 6.10
CC(=O)Nc1nc2c(s1)-c1c(c(C(=O)O)nn1-c1ccccc1)CC2 | > 6.10
COCc1nn(-c2ccccc2C(F)(F)F)c2c1CCc1nc(NC(C)=O)sc1-2 | > 6.10
CC(=O)Nc1nc2c(s1)-c1c(cnn1-c1ccc(CC(=O)N(C)CC(=O)N(C)C)cc1)CC2 | > 6.10
CC(=O)Nc1nc2c(s1)-c1c(cnn1-c1ccc(C(=O)NCCCN3CCOCC3)cc1)CC2 | > 6.10
CC(=O)Nc1nc2c(s1)-c1c(cnn1-c1cccc(C)c1)CC2 | > 6.10
CNC(=O)Nc1nc2c(s1)-c1nc(-c3ccccc3C)ncc1CC2 | > 6.10
CC(=O)Nc1nc2c(s1)-c1c(cnn1-c1ccc(C(=O)N3C[C@@H](C)O[C@@H](C)C3)cc1Cl)CC2 | > 6.10
CC(=O)Nc1nc2c(s1)-c1nc(Cc3c(Cl)cccc3Cl)ncc1CC2 | > 6.10
CCN(CC)C(=O)C1CCCCN1C(=O)c1ccc(-n2ncc3c2-c2sc(NC(C)=O)nc2CC3)cc1 (centres undefined) | > 6.10
CC(=O)Nc1nc2c(s1)-c1c(cnn1-c1ccc(C(=O)N3CCC(N4CCCS4(=O)=O)CC3)cc1)CC2 | > 6.10
CC(=O)Nc1nc2c(s1)-c1c(cnn1-c1ccc(C(=O)O)cc1Cl)CC2 | > 6.10
CC(=O)Nc1nc2c(s1)-c1c(cnn1-c1ccc(C(=O)NCCN3CCNC3=O)cc1)CC2 | > 6.10
CC(=O)Nc1nc2c(s1)-c1nn(-c3ccccc3Cl)c(-c3ccoc3)c1CC2 | > 6.10
CC(=O)Nc1nc2c(s1)-c1c(cnn1-c1cc(O)cc(Cl)c1)CC2 | > 6.10
CC(=O)Nc1nc2c(s1)-c1c(c(-c3ccco3)nn1-c1ccc(Br)cc1C(F)(F)F)CC2 | > 6.10
CC(=O)Nc1nc2c(s1)-c1c(cnn1C(N)=O)CC2 | > 6.10
COc1cccc(-c2ncc3c(n2)-c2sc(NC(C)=O)nc2CC3)c1 | > 6.10
CCC(=O)Nc1nc2c(s1)-c1nc(-c3ccccc3)ncc1CC2 | > 6.10

Compound | pIC50
CC(=O)Nc1nc2c(s1)-c1c(cnn1-c1ccc(C(=O)NC(C)(C)CN3CCCCC3)cc1)CC2 | > 6.10
CC(=O)Nc1nc2c(s1)-c1c(cnn1-c1ccc(C(=O)N3CCC(N4CCOCC4)CC3)cc1Cl)CC2 | > 6.10
CC(=O)Nc1nc2c(s1)-c1c(cnn1-c1ccncc1)CC2 | > 6.10
O=C(CO)Nc1nc2c(s1)-c1c(cnn1-c1ccccc1)CC2 | > 6.10
CC(=O)Nc1nc2c(s1)-c1c(cnn1-c1ccc(CC(=O)NCC3OCCO3)cc1)CC2 | > 6.10
CC(=O)Nc1nc2c(s1)-c1nn(-c3ccccc3Cl)c(-c3cn(C)cn3)c1CC2 | > 6.10
CC(=O)Nc1nc2c(s1)-c1c(cnn1-c1ccc(CCNC(=O)c3ccccc3)cc1)CC2 | > 6.10
CC(=O)Nc1nc2c(s1)-c1c(c(C(=O)N[C@@H]3CCOC3=O)nn1-c1ccccc1)CC2 | > 6.10
CC(=O)Nc1nc2c(s1)-c1c(cnn1-c1ccc(C(C)(C)C)cc1)CC2 | > 6.10
CC(=O)Nc1nc2c(s1)-c1c(c(-c3cccnc3)nn1-c1ccccc1Cl)CC2 | > 6.10
CC(=O)Nc1nc2c(s1)-c1c(cnn1-c1ccc(C(=O)N3CCc4ccccc4C3)cc1)CC2 | > 6.10
CC(=O)Nc1nc2c(s1)-c1nc(NC3CCN(C)CC3)ncc1CC2 | > 6.10
CC(=O)Nc1nc2c(s1)-c1c(cnn1-c1ccc3ncsc3c1)CC2 | > 6.10
CC(=O)Nc1nc2c(s1)-c1nc(C(F)(F)F)ncc1CC2 | > 6.10
CC(=O)Nc1nc2c(s1)-c1c(cnn1-c1ccc(C(=O)N[C@H](C(N)=O)c3ccccc3)cc1Cl)CC2 | > 6.10
CC(=O)Nc1nc2c(s1)-c1c(cnn1-c1ccc(C(=O)N[C@H](Cc3ccc(O)cc3)C(N)=O)cc1)CC2 | > 6.10
CC(=O)Nc1nc2c(s1)-c1c(c(-c3ccco3)nn1-c1ccc(C(=O)N[C@H]3CC[C@H](N4CCCC4)CC3)cc1Cl)CC2 | > 6.10
CC(=O)Nc1nc2c(s1)-c1c(cnn1-c1ccc(C(=O)N3CCC(NC(=O)Cc4ccccc4)CC3)cc1)CC2 | > 6.10
CC(=O)Nc1nc2c(s1)-c1c(cnn1-c1ccc(CC(=O)O)cc1)CC2 | > 6.10
O=C(NCCN1CCOCC1)Nc1nc2c(s1)-c1c(cnn1-c1ccccc1)CC2 | > 6.10
CC(=O)Nc1nc2c(s1)-c1c(cnn1-c1ccc(C(=O)N[C@H](C(N)=O)C(C)C)cc1Cl)CC2 | > 6.10
Nc1nc2c(s1)-c1nc(-c3ccccc3)ncc1CC2 | > 6.10
CC(=O)Nc1nc2c(s1)-c1c(cnn1-c1cc(S(N)(=O)=O)ccc1Cl)CC2 | > 6.10
CC(=O)Nc1nc2c(s1)-c1nc(N3CCCC3=O)ncc1CC2 | > 6.10
CC(=O)Nc1nc2c(s1)-c1c(c(-c3ccccc3)nn1-c1ccccc1Br)CC2 | > 6.10

Compound | pIC50
CC(=O)Nc1nc2c(s1)-c1c(cnn1-c1ccc(C(=O)N3CCC[C@H]3C(=O)O)cc1)CC2 | > 6.10
COc1ccccc1-n1nc(-c2ccco2)c2c1-c1sc(NC(C)=O)nc1CC2 | > 6.10
CC(=O)Nc1nc2c(s1)-c1c(cnn1-c1ccc(C(=O)N3CCC4(CC3)CNC(=O)O4)cc1)CC2 | > 6.10
O=CNc1nc2c(s1)-c1c(cnn1-c1ccccc1)CC2 | > 6.10
CCc1ccccc1-n1ncc2c1-c1sc(NC(C)=O)nc1C2 | > 6.10
CC(=O)Nc1nc2c(s1)-c1cc(NC(=O)C(C)C)ccc1CC2 | > 6.10
CC(=O)Nc1nc2c(s1)-c1c(cnn1-c1ccc(C(=O)N3CCC(N4CCCCC4)CC3)cc1)CC2 | > 6.10
CC(=O)Nc1nc2c(s1)-c1c(cnn1-c1ccc(C(=O)N3CCC(C(N)=O)CC3)cc1)CC2 | > 6.10
CC(=O)Nc1nc2c(s1)-c1c(c([C@H]3CCCO3)nn1-c1ccc(C(=O)NCc3ccncc3)cc1Cl)CC2 | > 6.10
CC(=O)Nc1nc2c(s1)-c1nn(-c3ccccc3F)c(-c3ccco3)c1CC2 | > 6.10
CC(=O)Nc1nc2c(s1)-c1c(cnn1-c1ccc(S(=O)(=O)N3CCCCC3)cc1)CC2 | > 6.10
CC(=O)Nc1nc2c(s1)-c1c(cnn1-c1ccc(Br)cc1)CC2 | > 6.10
CC(=O)Nc1nc2c(s1)-c1c(cnn1-c1ccccc1C(F)(F)F)CC2 | > 6.10
CC(=O)Nc1nc2c(s1)-c1c(cnn1-c1ccc(C(=O)N[C@H]3CC[C@@H](N4CCCC4)CC3)cc1)CC2 | > 6.10
O=C(NCCn1ccnc1)Nc1nc2c(s1)-c1c(cnn1-c1ccccc1Cl)C2 | > 6.10
CC(=O)Nc1nc2c(s1)-c1c(c([C@H]3CCCO3)nn1-c1ccccc1Cl)CC2 | > 6.10
Cc1ccccc1-c1ncc2c(n1)-c1sc(NC(=O)N(C)C)nc1CC2 | > 6.10
CC(=O)Nc1nc2c(s1)-c1c(cnn1-c1ccc(C(=O)NCc3ccncc3)cc1)CC2 | > 6.10
CC(=O)Nc1nc2c(s1)-c1c(cnn1-c1ccc(CC(=O)N3CCCC(C(N)=O)C3)cc1)CC2 (centres undefined) | > 6.10
CC(=O)Nc1nc2c(s1)-c1nc(N3CCOCC3)ncc1C2 | > 6.10
CC(=O)Nc1nc2c(s1)-c1nc(C)ncc1CC2 | > 6.10
CN(C)C(=O)Nc1nc2c(s1)-c1nc(-c3ccccc3)ncc1CC2 | > 6.10
CC(=O)Nc1nc2c(s1)-c1c(cnn1-c1ccc(CC(=O)NCCN3CCNC3=O)cc1)CC2 | > 6.10
CC(=O)Nc1nc2c(s1)-c1c(c(-c3ccoc3)nn1-c1ccccc1Cl)CC2 | > 6.10
